Measurements published in publication PMC10967572, “Induction of Oxidative Stress and Ferroptosis in Triple-Negative Breast Cancer Cells by Niclosamide via Blockade of the Function and Expression of SLC38A5 and SLC7A11” (Antioxidants, 2024).

Tests used:
[1] = parameters: method as in PMID 31078739, PMID 33737681; conditions: oral; cited from earlier work
[2] = tested on: MB231 and TXBR100 cells; test: Lipid peroxidation (malondialdehyde) assay; type: cell-based, human; conditions: niclosamide 2.5 and/or 5 μM, 24 h
Description: (§1) Control and niclosamide-treated cells were used for measurement of cellular glutathione levels as instructed in the manufacturer’s protocol (GSH-Glo assay, Promega, Madison, WI, USA). The levels of malondialdehyde were measured using lipid peroxidation kit [Lipid Peroxidation (MDA) Assay Kit (MAK085), Millipore-sigma, St. Louis, MO, USA].

[3] = tested on: MB231 cells and TXBR100 cells; test: Lipid radical (ferroptosis) assay with LipiRadical Green; type: cell-based, human; conditions: niclosamide 5 μM; MB231 30 min, TXBR100 2 h
Description: Lipid radical (ferroptosis) assay and iron assay were performed as follows. Cells were cultured on a 25 mm glass coverslip until they reached 60–70% confluency (~48 h). At the time of the experiment, cells were washed with NaCl buffer, pH 7.5 and then incubated with 1 µM of LipiRadical Green (a lipid radical detection reagent, FDV-0042, Funakoshi, Tokyo, Japan) or Ferro-orange (an iron detection probe, F374, Dojindo, Rockville, MD, USA) in NaCl buffer, pH 7.5 for 20 min and then washed with NaCl buffer, pH 7.5. To analyze the effects of modifiers of iron levels and lipid peroxidation, the cells were co-treated with the modifiers and the respective fluorescent probe for 20 min and then washed. The glass coverslip containing the cells was then probed under an inverted microscope. The fluorescence imaging was captured using a Nikon T1-E microscope with A1 confocal super-resolution module (Nikon, Dallas, TX, USA), with a 60× objective, at 488 nm. The images represent a maximum projection intensity derived from a Z-stack. The fluorescence quantification was performed by measuring the corrected total cell fluorescence (CTCF) using Image J (version: 2.14.0/1.54f) and the following formula; CTCF = (integrated density) − (area of cell of interest) × (mean fluorescence of background).

[4] = tested on: TNBC cells (MB231 and TXBR100); test: MTT cell proliferation / viability assay; type: cell-based, human; conditions: niclosamide 2 μM, 72 h, MB231 and TXBR100
Description: Cells were seeded in 96-well plates; after 24 h, niclosamide treatment was initiated. Cells were then cultured for 72 h with fresh medium containing freshly prepared niclosamide supplied every 24 h. Cells were washed with phosphate-buffered saline twice followed by MTT reagent (ATCC). Treatment and lysis of the cells were done as per the manufacturer’s instructions. Absorbance of the lysate was measured at 550 nm. Cell viability assay with various cell-death inhibitors was also performed as described above. Cells were treated with niclosamide (1 µM) along with cell death inhibitors (10 µM), except hydroxychloroquine (25 µM) for 48 h.

[5] = tested on: MB231 and TXBR100 cells; test: Matrigel cell invasion assay; type: cell-based; conditions: Homo sapiens, niclosamide 2.5 μM, 24 h, read-out: inhibition of cell invasion and migration
Description: The effect of niclosamide on cell invasion was monitored using Corning® BioCoat™ Matrigel® Invasion assay kit according to the manufacturer’s instructions. Briefly, cells were serum-starved and their invasion to the other side of the membrane was analyzed in the presence or absence of niclosamide for 24 h. At the end of this treatment, non-invaded cells on the top side of the membrane were removed by scrubbing. Cells which invaded the other side of the membrane were fixed with 100% methanol, stained with crystal violet and counted under an inverted microscope; images were also captured.

[6] = tested on: SLC38A5 and SLC7A11 mRNA; test: qRT-PCR of SLC38A5 and SLC7A11 mRNA in TNBC cells; type: cell-based, human; conditions: niclosamide 2 μM, 24 h; MB231 and TXBR100
Description: Total RNA was extracted from cells using TRIzol Reagent (ThermoFisher Scientific, Waltham, MA, USA) and the RNA was reverse-transcribed using a high-capacity cDNA reverse transcription kit (ThermoFisher Scientific, Waltham, MA, USA) according to the manufacturer’s protocol. Quantitative RT-PCR was performed with Takara Taq Hot Start Version (TaKaRa Biotechnology, Shiga, Japan) or Power SYBR Green PCR master mix (Bio-Rad, Hercules, CA, USA). Primer sequences are shown in Supplemental Table S1. The relative mRNA expression was determined by the 2^−∆∆Ct method. Additionally, 18S was used as a housekeeping gene for normalization.

[7] = tested on: MB231 cells and TXBR100 cells; test: Cellular glutathione levels (GSH-Glo assay); type: cell-based, human; conditions: niclosamide 2 μM, 24 h; MB231 and TXBR100
Description: as §1

## O=C(Nc1ccc([N+](=O)[O-])cc1Cl)c1cc(Cl)ccc1O [niclosamide]
[1]
  bioavailability when given orally: low
[2]
  malondialdehyde levels (lipid peroxidation): increase
[3]
  ferroptosis (lipid radical fluorescence): induced ferroptosis
[4]
  decrease in cell proliferation: > 50%
[5]
  inhibition at […]: > 75%
[6]
  SLC7A11 mRNA level: decreased
  SLC38A5 mRNA level: decreased
[7]
  decrease in glutathione levels: 60–70%
